Holding throughout (type): physicochemical
A short description of data set [1]: BCS (Biopharmaceutics Classification System) designation. Particulars: listed as Crystalline Form II of Verubecestat.
Data set [2] in a line: Thermodynamic stability by competitive slurry experiments in various solvent systems, resultant form by PXRD. Particulars: slurried in various solvents for an extended period of time at a controlled temperature. The procedure:
The thermodynamic stability of Crystalline Form II of Verubecestat was assessed using competitive slurry experiments in various solvent systems. Crystalline Form I of Verubecestat, obtained using the procedures set out in WO2016025364, and Crystalline Form II of verubecestat material obtained as described above were slurried in various solvents for an extended period of time and at a controlled temperature. At the end of the experiments, the solvent was removed and the remaining crystalline material were evaluated using Powder X-ray Diffraction (PXRD) to confirm the resultant form.

Data set [3] is described as follows: 4 week open dish accelerated chemical stability of 12 mg tablets, analyzed using HPLC. Particulars: 40° C./75% RH. The procedure: To assess the chemical stability of Crystalline Form II of verubecestat in the tablet formulation, a 4 week open dish accelerated stability experiment was performed at a controlled temperature and humidity. Identical measurements were made to Crystalline Form I of verubecestat, which Form I is described in WO2016025364 for comparison. […] At the end of two weeks and of four weeks, tablets were analyzed using HPLC. The data obtained are reported in the following table, where “Hyd1” and “Hyd2” indicate observed degradation product: […]

Entries after “also recorded” stand apart in the source; their conditions may differ.

As to `CN1C(N)=N[C@](C)(c2cc(NC(=O)c3ccc(F)cn3)ccc2F)CS1(=O)=O` [Crystalline Form II, N-[3-[(5R)-3-amino-5,6-dihydro-2,5-dimethyl-1,1-dioxido-2H-1,2,4-thiadiazin-5-yl]-4-fluorophenyl]-5-fluoro-2-pyridinecarboxamide], the BCS class entry in data set [1] was “Class I; also recorded: Class 1”. Also, the “Form remaining after competitive slurry of Form I and Form II (thermodynamic stability)” value in data set [2] was “the only form remaining”. Besides, the “Assay (% LC)” value in data set [3] (2 weeks) was found to be 104.6 % LC. In addition, the “Assay (% LC)” value in data set [3] (4 weeks) stood at 102.4 % LC. Also, in data set [3] (time point 0), the “Assay (% LC)” value was found to be 104.3 % LC, the “Degradation Product (%) Hyd1” value was “— (“—”means not more than 0.05%)”, the “Degradation Product (%) Hyd2” value is given as “— (“—”means not more than 0.05%)” and the “Degradation Product (%) Total” value is “— (“—”means not more than 0.05%)”.
Take `CN1C(=N)N[C@](C)(c2cc(NC(=O)c3ccc(F)cn3)ccc2F)CS1(=O)=O` [Crystalline Form I, verubecestat, reference compound]: the “Assay (% LC)” value in data set [3] (2 weeks) is given as 98.5 % LC. In data set [3] (4 weeks), the “Assay (% LC)” value came to 97.4 % LC. Also, in data set [3] (time point 0), the “Assay (% LC)” value amounted to 98.5 % LC, the “Degradation Product (%) Hyd1” value is reported as “— (“—”means not more than 0.05%)”, the “Degradation Product (%) Hyd2” value is “— (“—”means not more than 0.05%)” and the “Degradation Product (%) Total” value is given as “— (“—”means not more than 0.05%)”.

The record behind these values is patent publication US11306080B2, “Crystalline form of a BACE inhibitor, compositions, and use” (Merck Sharp & Dohme Corp., priority 2017, dated 2022).
